Source: patent US9029092B2, “Solution phase homogeneous assays” (Beckman Coulter, Inc., priority 2009, dated 2015)

System: biotinylated HRP
Test: Model system for selection of SSIA (AK1/streptavidin BSA microparticles + biotinylated HRP)
Type: biochemical, horseradish
Conditions: SSIA 100 μM final; for light intensity, BTN-HRP0: Btn-HRP 0 ng/mL; for light intensity, BTN-HRP0 / light intensity, BTN-HRP1 / light intensity, BTN-HRP10 / light intensity, BTN-HRP100 / light intensity, BTN-HRP250: total HRP 500 ng/mL; for S1/S0: Btn-HRP 1 ng/mL vs 0; for light intensity, BTN-HRP1: Btn-HRP 1 ng/mL; for S2/S0: Btn-HRP 10 ng/mL vs 0; for light intensity, BTN-HRP10: Btn-HRP 10 ng/mL; for S3/S0: Btn-HRP 100 ng/mL vs 0; for light intensity, BTN-HRP100: Btn-HRP 100 ng/mL; for S4/S0: Btn-HRP 250 ng/mL vs 0; for light intensity, BTN-HRP250: Btn-HRP 250 ng/mL
Protocol: The model system uses a microparticle conjugated to BSA (bovine serum albumin) labeled with a […] and acridan ketenedithioacetal chemiluminescent label (AK1) as the chemiluminescent-labeled sbp, and biotinylated HRP as the activator-labeled specific binding pair. In the model system, varying amounts of Btn-HRP is added to the chemiluminescent-labeled specific binding pair at 0, 1, 10, 100 and 250 ng/mL. Additional unlabeled HRP is added to reach a total HRP of concentration of 500 ng/mL in each reaction mixture. The unlabeled HRP in combination with the activator-labeled sbp was provided to the chemiluminescent-labeled sbp microparticles to emulate sample. A compound for assessment as an SSIA was also added. This reaction mixture of the model system is then triggered by addition of trigger solution in a manner of assays of the present disclosure.
To prepare the chemiluminescent-labeled sbp on microparticles, Bovine Serum Albumin (BSA) was biotinylated with 4× molar excess of biotin-LC-sulfoNHS (Pierce Biotechnology Inc., Rockford, Ill., USA). Unbound reactants were removed via desalting or dialysis. The biotin-BSA was then reacted with a 5× molar excess of an NHS ester of acridan ketenedithioacetal AK1 in 20 mM sodium phosphate pH 7.2: DMSO 75:25, v/v) followed by desalting in the same buffer. The dual labeled (biotin and AK1) BSA was then coupled with tosyl activated M280 microparticles (Invitrogen Corporation, Carlsbad, Calif., USA) in a 0.1M borate buffer pH 9.5 at a concentration of about 20 μg of labeled BSA per mg of microparticles for 16-24 h at 40° C. After coupling the microparticles were stripped for 1 h at 40° C. with 0.2 M TRIS base, 2% SDS, pH˜11. The stripping process was repeated one additional time. Microparticles were then suspended in a 0.1% BSA/TRIS buffered saline (BSA/TBS) buffer and streptavidin (SA) was added at approximately 15 μg SA per mg microparticles. Streptavidin was mixed with the microparticles for 45-50 min at room temperature. The microparticles were then washed three times and suspended in the same BSA/TBS.
HRP, (Roche Diagnostics, Indianapolis, Ind., USA) was biotinylated with 4× molar excess of biotin-LC-sulfoNHS (Pierce Biotechnology Inc., Rockford, Ill., USA). Alternatively, 25× molar excess of biotin-PEO4-NHS may be used. Unbound reactants were removed via desalting or dialysis.
Each SSIA compound for assessment was solubilized in Buffer II at a concentration at least 10× of the working strength concentration.
25 μl of 1 mg/ml of dual-labeled (biotin and AK1) BSA M280 particles were mixed with 45 μl of working concentration SSIA in Buffer II. The assay volume brought to 85 μl by adding 15 μl of Buffer II. 15 μl of sample containing Btn-HRP:HRP at different ratios (The amount of biotinylated-HRP varied from 0, 1, 10, 100 and 250 ng/mL) was added. The reaction mixture was incubated for 30 min at 37° C., then 100 μL of trigger solution was added and the light intensity recorded. Total volume of reaction mixture, including trigger solution was 200 μL with a final concentration of 100 μM of SSIA.
The screening tests were performed using a modified DxI® Immunoassay System (Beckman Coulter, Inc. Brea, Calif.) as described above.

Row | Molecule | light intensity, BTN-HRP0 | S1/S0 | light intensity, BTN-HRP1 | S2/S0 | light intensity, BTN-HRP10 | S3/S0 | light intensity, BTN-HRP100 | S4/S0 | light intensity, BTN-HRP250 | effectiveness as SSIA in the model system
1 | NNC(=O)c1cccnc1 [Nicotinic Hydrazide] | 42,260 | 1.4 | 58,356 | 49.8 | 2,106,471 | 194.2 | 8,205,320 | 187.5 | 7,923,092 | insuffient effectiveness
2 | Nc1ccc(C(=O)O)cc1O [4-Amino-3-hydroxy-benzoic acid] | 972 | 2.9 | 2,808 | 454.2 | 441,455 | 6076.7 | 5,906,521 | 6587.9 | 6,403,425 | demonstrating utility as SSIA
3 | Oc1ccc(O)c(Cl)c1 [2-chloro-1,4-dihydroxybenzene] | 3,571 | 1.1 | 4,007 | 52.9 | 188,920 | 170.8 | 610,053 | 245.3 | 875,831 | –
4 | CC1(C)CC(O)CC(C)(C)N1[O] [TEMPOL] | 22,621 | 1.5 | 33,873 | 86.8 | 1,963,369 | 407.6 | 9,220,799 | 467.6 | 10,578,104 | insuffient effectiveness
5 | CC(=O)N[C@@H](CS)C(=O)O [N-Ac-Cysteine, N-acetyl cysteine] | 43,647 | 1.1 | 47,636 | 40.3 | 1,757,607 | 199 | 8,685,795 | 234.2 | 10,219,869 | insuffient effectiveness
6 | COc1cc(/C=C/C(=O)O)ccc1O [Ferulic acid] | 5,252 | 2.3 | 12,079 | 136.2 | 715,313 | 1672.9 | 8,785,865 | 1950.5 | 10,244,269 | –
7 | CC1(C)OC[C@@H]([C@H]2OC(=O)C(O)=C2O)O1 [5,6iso-propyliene ascorbic acid] | 264 | 3.6 | 961 | 112.3 | 29,645 | 18626.9 | 4,917,499 | 33275 | 8,784,595 | demonstrating utility as SSIA
8 | COc1ccc2[nH]cc(CCNC(C)=O)c2c1 [Melatonin] | 54,528 | 1.3 | 70,741 | 43.7 | 2,381,361 | 173.7 | 9,471,431 | 190.2 | 10,370,061 | insuffient effectiveness
9 | (+/−)-alpha-Tocopherol | 2,772 | 2.3 | 6,468 | 452.1 | 1,253,187 | 3088.2 | 8,560,469 | 3473.4 | 9,628,184 | –
10 | Cc1c(O)cc2c(c1C)O[C@](C)(CCC[C@H](C)CCC[C@H](C)CCCC(C)C)CC2 [(+)-gamma-Tocopherol] | 6,051 | 1.8 | 10,924 | 278.7 | 1,686,079 | 1437.5 | 8,698,069 | 1699.4 | 10,282,504 | –
11 | O=c1[nH]c(=O)c2[nH]c(=O)[nH]c2[nH]1 [Uric Acid] | 5,532 | 1.8 | 9,760 | 185.3 | 1,025,209 | 1574.9 | 8,712,328 | 1935.8 | 10,708,733 | –
12 | Oc1ccc(Cl)cc1O [4-chloro catechol, 4-chlorocatechol] | 93 | 2.2 | 205 | 14.8 | 1,373 | 4910.8 | 456,707 | 13558.5 | 1,260,937 | demonstrating utility as SSIA
13 | O=C(O)CCCC[C@@H]1CCSS1 (racemic) [Lipoic Acid] | 35,016 | 2 | 71,751 | 70.0 | 2,450,949 | 246.9 | 8,647,037 | 252.7 | 8,847,921 | insuffient effectiveness
14 | Cl.Nc1ccc(O)cc1O [4-aminoresorcinol hydrochloride] | 675 | 1.7 | 1,163 | 110.8 | 74,764 | 489.0 | 330,056 | 384.5 | 259,541 | –
15 | CCCCCCCCCCCCCCCC(=O)OC[C@H](O)[C@H]1OC(=O)C(O)=C1O [Ascorbic Acid 6-palmitate] | 81 | 4 | 327 | 502.4 | 40,863 | 100662.3 | 8,187,204 | 125193.6 | 10,182,411 | demonstrating utility as SSIA
16 | COc1cc(C(=O)O)cc(OC)c1O [Syringic Acid] | 14,485 | 1.6 | 23,707 | 64.8 | 939,372 | 547.2 | 7,927,096 | 658 | 9,530,979 | –
17 | O=C(O)c1cccnc1 [Nicotinic Acid] | 34,369 | – | 53,765 | – | 2,228,317 | – | 8,772,523 | – | 9,224,439 | insuffient effectiveness
